Source: EP4603105A1, “PHARMACEUTICAL COMPOSITION CONTAINING CYCLIC COMPOUND HAVING SELECTIVE KRAS INHIBITORY EFFECT AGAINST HRAS AND NRAS” (CHUGAI SEIYAKU KABUSHIKI KAISHA, priority 2022, dated 2024)
*1 amine or outer side, *2 acyl side, *3 side chain or, on linkers, in order; H or OH if unused. Where a SMILES comes first, the peptide text is derived from it. Bridges are numbered along the chain shown (N, C = ends). [ ]: non-standard residue; d: D form. The star is where a group is joined. hPhe(3-Cl-4-CF3) = N[C@@H](CCc1ccc(C(F)(F)F)c(Cl)c1)C(=O)O; X51 = CCCN([C@@H](Cc1ccc(OC(F)(F)F)cc1)C(=O)[*:2])[*:1]; X37 = Cc1ccc(C[C@@H](C(=O)[*:2])N(CCC(C)C)[*:1])cc1; X44 = Cc1ccc(C[C@@H](C(=O)[*:2])N(CC2CCC2)[*:1])cc1; NMeGly(cPent) = CN[C@H](C(=O)O)C1CCCC1; NMeD = CN[C@@H](CC(=O)O)C(=O)O; NMeL = CN[C@@H](CC(C)C)C(=O)O; Morpholide = C1CN(*)CCO1; NMeA = CN[C@@H](C)C(=O)O; Ac5c = NC1(C(=O)O)CCCC1; Aze = O=C(O)[C@@H]1CCN1; Sar = CNCC(=O)O

How the values were obtained:
[1] = target: GDP-bound NRAS wild-type protein (Homo sapiens, UniProt P01111); assay: Binding to NRAS by surface plasmon resonance (SPR), KD and KD ratio to KRAS; conditions: ratio of KD for GDP-bound NRAS wild-type protein to KD for KRAS
Description: (§1) Surface plasmon resonance was used to analyze the binding affinity of compounds for KRAS, NRAS, and HRAS. The apparatus used was Biacore 8K, 8K+, or T200 (GE Healthcare), and the running buffer used was HBS (10 mM HEPES-NaOH, 150 mM NaCl, pH 7.4) containing 1 mM DTT, 10 mM MgCl2, 0.01% Tween 20, 10 µM GDP, and 4% DMSO.
(§2) Biotinylated Avi-tag fusion KRAS, NRAS, and HRAS proteins were expressed in E. coli BL21 (DE3) strains, and after cells were homogenized, they were purified using Streptavidin Mutein Matrix and Superdex 75. After purification, GDP-loaded KRAS, NRAS, and HRAS proteins were immobilized on the surface of Sensor Chip CAP (Cytiva) coated with Biotin CAPture Reagent in an immobilization amount of about 100 to 300 RU. Binding of each compound was evaluated by the Single Cycle Kinetics method, and a running buffer or a compound solution was added to the RAS protein non-immobilized surface and the immobilized surface to obtain a binding response. The flow rate was set to 100 µL/min, and in the compound-adding cycle, compound solutions having different concentrations were intermittently added for 75 seconds each, starting from a low concentration. […] In the blank cycle, a running buffer was intermittently added and not the compound solution. The Biotin CAPture Reagent and RAS proteins were immobilized for each cycle, and at the end of each cycle, the sensor chip was regenerated by the regeneration solution appended to the Biotin CAPture Kit (Cytiva). Measurement was carried out at 30°C.
(§3) The resulting sensorgram was subjected to curve fitting based on a 1:1 binding model on Biacore Insight Evaluation Software or T200 Evaluation Software, and thereby the dissociation constant KD of each compound with respect to KRAS, NRAS, and HRAS was determined. […] Blank indicates a compound from which the KD value with respect to NRAS or HRAS was not obtained.

HRAS wild-type protein = HRAS wild-type protein (Homo sapiens, UniProt P01112); assay: Binding to HRAS by surface plasmon resonance (SPR), KD and KD ratio to KRAS; conditions: ratio of KD for HRAS wild-type protein to KD for KRAS
Description: as §1, §2, §3

[2] = tested on: human lung cancer strain NCI-H441; assay type: cell-based
Description: A test compound was dispensed into a U-bottom 384-well plate as 40 nL serially diluted dimethyl sulfoxide solutions using a liquid handler Echo (LABCYTE). […] This cell suspension was dispensed in an amount of 40 µL per well into a plate containing the test compound, and cultured at 37°C in a 5% carbon dioxide gas incubator. Four days later, 20 µL of CellTiter-Glo (registered trademark) (Promega) was added to each well and […] was measured. […]

Sequence of GDP-bound NRAS wild-type protein (P01111 whole entry): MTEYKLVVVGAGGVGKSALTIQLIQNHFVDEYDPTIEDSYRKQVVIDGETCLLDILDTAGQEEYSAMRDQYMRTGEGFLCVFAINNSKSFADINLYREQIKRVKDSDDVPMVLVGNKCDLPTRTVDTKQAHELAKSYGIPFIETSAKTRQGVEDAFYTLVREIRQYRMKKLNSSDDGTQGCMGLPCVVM
Sequence of HRAS wild-type protein (P01112 whole entry): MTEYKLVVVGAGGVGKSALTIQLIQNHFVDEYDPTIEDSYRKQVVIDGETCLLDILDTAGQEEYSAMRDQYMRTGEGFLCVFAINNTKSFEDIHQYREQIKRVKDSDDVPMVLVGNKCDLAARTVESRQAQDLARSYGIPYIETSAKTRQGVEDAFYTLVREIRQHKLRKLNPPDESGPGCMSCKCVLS

IC50 [2] [nM]	Structure (SMILES)	NRAS /KRAS [1]	HRAS /KRAS (HRAS wild-type protein)
–	CCO[C@@H]1C[C@H]2C(=O)NC3(CC(C)(C)C3)C(=O)N(C)[C@@H](C3CCCC3)C(=O)N(C)[C@H](C(=O)N3CCCCC3)CC(=O)N(C)[C@H]3CCCCc4ccc(cc4)C[C@@H](C(=O)N(C)CC(=O)N[C@@H](CCc4ccc(C(F)(F)F)c(OC)c4)C(=O)N2C1)N1CC/C=C\C[C@@H](C1=O)N(C)C(=O)CN(C)C(=O)[C@H]([C@@H](C)CC)NC3=O [PP3093]	A (a compound having 10 or more and less than 20 is denoted as A)	A (a compound having 10 or more and less than 20 is denoted as A)
2750	CC[C@H](C)[C@@H]1NC(=O)[C@H](CC(C)C)N(C)C(=O)C[C@@H](C(=O)N2CCOCC2)N(C)C(=O)[C@H](C2CCCC2)NC(=O)C2(CCCC2)NC(=O)[C@@H]2CCCN2C(=O)[C@H](CCc2cc(F)c(C(F)(F)F)c(F)c2)NC(=O)CN(C)C(=O)[C@H](Cc2ccc(C(F)(F)F)cc2)N2CCCCC[C@@H](C2=O)N(C)C(=O)CN(C)C1=O [PP0478]	–	–
19.6	CCCN1C(=O)[C@@H]2CCN2C(=O)[C@H](C)N(C)C(=O)[C@H]([C@@H](C)CC)NC(=O)[C@H](CC(C)C)N(C)C(=O)C[C@@H](C(=O)N2CCOCC2)N(C)C(=O)[C@H](C2CCCC2)N(C)C(=O)C2(CCCC2)NC(=O)[C@@H]2CCCN2C(=O)[C@H](CCc2ccc(C(F)(F)F)c(Cl)c2)NC(=O)CN(C)C(=O)[C@@H]1Cc1ccc(OC(F)(F)F)cc1 [PP0136] ([NMeL]I[NMeA][Aze][X51][Sar][hPhe(3-Cl-4-CF3)]P[Ac5c][NMeGly(cPent)][NMeD]-Morpholide; lactam N-11)	–	–
11.3	CC[C@H](C)[C@@H]1NC(=O)[C@H](CC(C)C)N(C)C(=O)C[C@@H](C(=O)N2CCOCC2)N(C)C(=O)[C@H](C2CCCC2)N(C)C(=O)C2(CCCC2)NC(=O)[C@@H]2CCCN2C(=O)[C@H](CCc2ccc(C(F)(F)F)c(Cl)c2)NC(=O)CN(C)C(=O)[C@H](Cc2ccc(C)cc2)N(CC2CCC2)C(=O)[C@@H]2CCN2C(=O)[C@H](C)N(C)C1=O [PP0083] ([NMeL]I[NMeA][Aze][X44][Sar][hPhe(3-Cl-4-CF3)]P[Ac5c][NMeGly(cPent)][NMeD]-Morpholide; lactam N-11)	–	–
9.4	CC[C@H](C)[C@@H]1NC(=O)[C@H](CC(C)C)N(C)C(=O)C[C@@H](C(=O)N2CCOCC2)N(C)C(=O)[C@H](C2CCCC2)N(C)C(=O)C2(CCCC2)NC(=O)[C@@H]2CCCN2C(=O)[C@H](CCc2ccc(C(F)(F)F)c(Cl)c2)NC(=O)CN(C)C(=O)[C@H](Cc2ccc(C)cc2)N(CCC(C)C)C(=O)CN(C)C(=O)CN(C)C1=O [PP0098] ([NMeL]I[Sar][Sar][X37][Sar][hPhe(3-Cl-4-CF3)]P[Ac5c][NMeGly(cPent)][NMeD]-Morpholide; lactam N-11)	–	–
–	CCC[C@H]1C(=O)N[C@@H]([C@@H](C)CC)C(=O)N(C2CC2)CC(=O)N(C)[C@H]2C/C=C\CCN(C2=O)[C@@H](Cc2ccc(C)cc2)C(=O)N(C)CC(=O)N[C@@H](CCc2ccc(C(F)(F)F)c(C3CC3)c2)C(=O)N2C[C@H](OCC)C[C@H]2C(=O)NC2(CC(C)(C)C2)C(=O)N(C)[C@@H](C2CCCC2)C(=O)N(C)[C@H](C(=O)N(C)C)CC(=O)N1C [PP2881]	A (a compound having 10 or more and less than 20 is denoted as A)	A (a compound having 10 or more and less than 20 is denoted as A)
7.7	CC[C@H](C)[C@@H]1NC(=O)[C@H](CC(F)F)N(C)C(=O)C[C@@H](C(=O)N(C)C)N(C)C(=O)[C@H](C2CCCC2)N(C)C(=O)C2(CC(C)(C)C2)NC(=O)[C@@H]2C[C@H](C)CN2C(=O)[C@H](CCc2ccc(C(F)(F)F)c(OC)c2)NC(=O)CN(C)C(=O)[C@H](Cc2ccc(C)cc2)N2CC/C=C\C[C@@H](C2=O)N(C)C(=O)CN(C)C1=O [PP1875]	–	–
22.6	CC[C@H](C)[C@@H]1NC(=O)[C@H](CC2CC2)N(C)C(=O)C[C@@H](C(=O)N(C)CC)N(C)C(=O)[C@H](C2CCCC2)N(C)C(=O)C2(CCC2)NC(=O)[C@@H]2C[C@H](C)CN2C(=O)[C@H](CCc2ccc(C(F)(F)F)c(OC)c2)NC(=O)CN(C)C(=O)[C@H](Cc2ccc(C)cc2)N2CC/C=C\C[C@@H](C2=O)N(C)C(=O)CN(C)C1=O [PP1897]	–	–
